Measured values reported in patent EP0354694A1, “Therapeutic [1]benzothiopyrano[4,3-c]pyrazoles” (The Boots Company PLC, priority 1988, dated 1990).

Test system: BALB/c mice
Test: cutaneous hypersensitivity test (CH test), oxazolone-induced ear swelling
Format: in vivo
Settings: Mus musculus, ip, 192 h; female BALB/c mice, intraperitoneal, daily from sensitisation for 8 days; lowest dose used with 20% or greater significant (p <0.05) reduction in ear swelling in two out of three CH tests; read-out: Minimum Effective Dose
Description: This test was carried out in the following way.
Female BALB/c mice, weight range 16-24 g, were used in groups of eight. The abdomen of each mouse was shaved and 20 µl of a solution of a sensitising agent, 5% w/v 4-ethoxymethylene-2-phenyl-2-oxazolin-5-one (oxazolone) in acetone:ethanol (1:1 by volume), was applied to the shaved area. Immediately after sensitisation, the test compound in one of the dosages listed below was injected intraperitoneally as a suspension in 1.5% v/v sorbitan esters, under the trade name Tween 80, in sterile water (100 µl). 100 µl of the same suspension was injected likewise every 24 hours for a further 7 days. The dosages used were selected from the following values: 50, 30, 10, 3, 1, 0.3, 0.1, 0.03 or 0.01 mg/kg.
Two groups of eight BALB/c mice were used as a control simultaneously with each test in a similar manner to that described above except that no test compound was included in the daily injections.
On the seventh day after sensitisation, 10 µl of a solution of 1% w/v oxazolone in acetone: olive oil (either 1:1 or 3:1 by volume) was applied to one ear (the challenged ear) of each of the test mice and the control mice. After 24 hours the thickness of the challenged ear and the thickness of the non-challenged ear of the same animal were measured with an engineer's screw gauge micrometer. The difference in thickness between the challenged ear and the non-challenged ear in each animal is a measure of the response of that animal to oxazolone. A comparison between the response of mice treated with the test compound and mice treated with the control indicates the effectiveness of the test compound as an immunomodulatory agent. The compounds were considered to be active at a particular dose if a 20% or greater reduction in ear swelling, which was statistically significant (p <0.05) according to Dunnett's test, between treated and control groups was obtained in two out of three CH tests, (or, where more than three tests have been carried out, a majority of the tests) at that dose (see for example Int. Arch. Allergy, 38, p246-259 (1970)).
Each of the compounds of formula I illustrated in Table A below was active at 50 mg/kg in two out of three tests at 50 mg/kg unless indicated otherwise (see Notes following the Table). The minimum effective dose (ie the lowest dose of those used at which the compound is active as defined above) for each compound is given in Table A. The Example (Ex) number or numbers listed adjacent to each compound indicates the process or processes illustrating the preparation of that compound in the Examples.

Row | Structure (SMILES) | minimal effective dose
1 | Cc1sc2ccccc2c2nn(-c3ccc(Cl)c(Cl)c3)c(=O)c1-2 [Example 43, 2-(3,4-dichlorophenyl)-4-methyl[1]-benzothiopyrano[4,3-c]pyrazol-3(2H)-one] | 3 mg/kg
2 | CC12CSc3ccccc3C1=NN(c1ccc(F)c(Cl)c1)C2=O (stereo not drawn) [Example 18, 2-(3-chloro-4-fluorophenyl)-3a-methyl-3a,4-dihydro[1]benzothiopyrano[4,3-c]-pyrazol-3(2H)-one] | 3 mg/kg
3 | CC12CSc3ccccc3C1=NN(c1cccc(Cl)c1)C2=O (stereo not drawn) [Example 14, 2-(3-chlorophenyl)-3a-methyl-3a,4-dihydro[1]benzothiopyrano[4,3-c]-pyrazol-3(2H)-one] | 3 mg/kg
4 | CC12CSc3ccccc3C1=NN(c1ccc(Br)cc1)C2=O (stereo not drawn) [Example 20, 2-(4-bromophenyl)-3a-methyl-3a,4-dihydro[1]benzothiopyrano[4,3-c]-pyrazol-3(2H)-one] | 1 mg/kg
5 | CC12CSc3ccccc3C1=NN(c1ccc(Cl)c(Cl)c1)C2=O (stereo not drawn) [Example 13/ 24, 2-(3,4-dichlorophenyl)-3a-methyl-3a,4-dihydro[1]benzothiopyrano-[4,3-c]pyrazol-3(2H)-one] | 0.3 mg/kg
6 | CC1Sc2ccccc2-c2[nH]n(-c3ccc(Br)cc3)c(=O)c21 (stereo not drawn) [Example 30, 2-(4-bromophenyl)-4-methyl-1,4-dihydro[1]benzothiopyrano[4,3-c]-pyrazol-3(2H)-one] | 3 mg/kg
7 | Cc1sc2ccccc2c2nn(-c3ccc(F)cc3)c(=O)c1-2 [Example 36, 2-(4-fluorophenyl)-4-methyl[1]benzo-thiopyrano[4,3-c]pyrazol-3(2H)-one] | 10 mg/kg
8 | CC1Sc2ccccc2-c2[nH]n(-c3ccc(Cl)cc3)c(=O)c21 (stereo not drawn) [Example 25, 2-(4-chlorophenyl)-4-methyl-1,4-dihydro[1]benzothiopyrano[4,3-c]-pyrazol-3(2H)-one] | 30 mg/kg
9 | Cc1ccc2sc(C)c3c(=O)n(-c4ccc(Cl)cc4)nc-3c2c1 [Example 41, 2-(4-chlorophenyl)-4,8-dimethyl[1]-benzothiopyrano[4,3-c]pyrazol-3(2H)-one] | 3 mg/kg
10 | CC12CSc3ccccc3C1=NN(c1ccc(Cl)cc1)C2=O (stereo not drawn) [Example 11/ 23, 2-(4-chlorophenyl)-3a-methyl-3a,4-dihydro[1]benzothiopyrano[4,3-c]-pyrazol-3(2H)-one] | 3 mg/kg
11 | CC12CSc3ccccc3C1=NN(c1ccc(C(F)(F)F)cc1)C2=O (stereo not drawn) [Example 16, 3a-methyl-2-(4-trifluoromethylphenyl)-3a,4-dihydro[1]benzothiopyrano-[4,3-c]pyrazol-3(2H)-one] | 0.3 mg/kg
12 | CC12CSc3ccc(Cl)cc3C1=NN(c1ccc(Cl)c(Cl)c1)C2=O (stereo not drawn) [Example 15, 8-chloro-2-(3,4-dichlorophenyl)-3a-methyl-3a,4-dihydro[1]benzothio-pyrano[4,3-c]pyrazol-3(2H)-one] | 50 mg/kg
13 | CC1Sc2ccccc2-c2[nH]n(-c3ccc(Cl)c(Cl)c3)c(=O)c21 (stereo not drawn) [Example 26, 2-(3,4-dichlorophenyl)-4-methyl-1,4-dihydro[1]benzothiopyrano[4,3-c]-pyrazol-3(2H)-one] | 50 mg/kg
14 | CCC1Sc2ccccc2-c2[nH]n(-c3ccc(Cl)cc3)c(=O)c21 (stereo not drawn) [Example 28, 2-(4-chlorophenyl)-4-ethyl-1,4-dihydro[1]benzothiopyrano[4,3-c]-pyrazol-3(2H)-one] | 50 mg/kg
15 | CSc1ccc(N2N=C3c4ccccc4SCC3(C)C2=O)cc1 (stereo not drawn) [Example 21, 3a-methyl-2-(4-methylthiophenyl)-3a,4-dihydro[1]benzothiopyrano[4,3-c]-pyrazol-3(2H)-one] | 50 mg/kg
16 | CC1Sc2ccccc2-c2[nH]n(-c3ccc(C(F)(F)F)cc3)c(=O)c21 (stereo not drawn) [Example 29/ 34/ 44, 4-methyl-2-(4-trifluoromethylphenyl)-1,4-dihydro[1]benzothiopyrano[4,3-c]-pyrazol-3(2H)-one] | 3 mg/kg
17 | CC12CSc3ccccc3C1=NN(c1ccc(F)cc1)C2=O (stereo not drawn) [Example 12, 2-(4-fluorophenyl)-3a-methyl-3a,4-dihydro[1]benzothiopyrano[4,3-c]-pyrazol-3(2H)-one] | 50 mg/kg
18 | COc1ccc(-n2nc3c4ccccc4sc(C)c-3c2=O)cc1 [Example 40, 2-(4-methoxyphenyl)-4-methyl[1]benzo-thiopyrano[4,3-c]pyrazol-3(2H)-one] | 50 mg/kg
19 | CC1Sc2ccccc2-c2[nH]n(-c3ccc(F)cc3)c(=O)c21 (stereo not drawn) [Example 27, 2-(4-fluorophenyl)-4-methyl-1,4-dihydro[1]benzothiopyrano[4,3-c]-pyrazol-3(2H)-one] | 50 mg/kg
20 | CC12CSc3ccccc3C1=NN(c1ccc(Br)c(Cl)c1)C2=O (stereo not drawn) [Example 17, 2-(4-bromo-3-chlorophenyl)-3a-methyl-3a,4-dihydro[1]benzothiopyrano[4,3-c]-pyrazol-3(2H)-one] | 0.3 mg/kg
21 | CC12CSc3ccc(F)cc3C1=NN(c1ccc(Cl)cc1)C2=O (stereo not drawn) [Example 22, 2-(4-chlorophenyl)-8-fluoro-3a-methyl-3a,4-dihydro[1]benzothiopyrano[4,3-c]-pyrazol-3(2H)-one] | 50 mg/kg
22 | Cc1sc2ccccc2c2nn(-c3ccc(C(F)(F)F)cc3)c(=O)c1-2 [Example 38, 4-methyl-2-(4-trifluoromethyl-phenyl)[1]benzothiopyrano[4,3-c]-pyrazol-3(2H)-one] | 0.3 mg/kg
23 | Cc1ccc(N2N=C3c4ccccc4SCC3(C)C2=O)cc1Cl (stereo not drawn) [Example 19, 2-(3-chloro-4-methylphenyl)-3a-methyl-3a,4-dihydro[1]benzothiopyrano[4,3-c]-pyrazol-3(2H)-one] | 3 mg/kg
24 | Cc1sc2ccccc2c2nn(-c3cccc(Cl)c3)c(=O)c1-2 [Example 42, 2-(3-chlorophenyl)-4-methyl[1]benzo-thiopyrano[4,3-c]pyrazol-3(2H)-one] | 50 mg/kg
25 | Cc1sc2ccccc2c2nn(-c3ccc(Cl)cc3)c(=O)c1-2 [Example 35, 2-(4-chlorophenyl)-4-methyl[1]-benzothiopyrano[4,3-c]pyrazol-3(2H)-one] | 10 mg/kg
26 | Cc1sc2ccccc2c2nn(-c3ccc(Br)cc3)c(=O)c1-2 [Example 39, 2-(4-bromophenyl)-4-methyl[1]benzo-thiopyrano[4,3-c]pyrazol-3(2H)-one] | 50 mg/kg
27 | CCc1sc2ccccc2c2nn(-c3ccc(Cl)cc3)c(=O)c1-2 [Example 37, 2-(4-chlorophenyl)-4-ethyl[1]benzo-thiopyrano[4,3-c]pyrazol-3(2H)-one] | 50 mg/kg
